Source: PMC5708526, “Targeting secondary protein complexes in drug discovery: studying the druggability and chemical biology of the HSP70/BAG1 complex” (Chemical Communications (Cambridge, England), 2017)
Where two headings read alike, the source gives them in different places.

Tests used:
Assay type in all cases: binding
HSP72 = biological target: T1, HSP72 (Homo sapiens, UniProt P0DMV8); test: Fluorescence polarisation probe KD determination with full-length HSP72
T1 construct: made in house
Procedure: (§1) To determine the binding affinity of bisaryl FP-probe 11 for HSP72, increasing concentrations of the protein were titrated against a fixed concentration (10 nM) of the FP-probe. […] We speculated that this decrease in apparent KD was due to the slow hydrolysis of the ATP-probe to ADP-ATTO-488 + Pi. Although HSP72 has low intrinsic ATPase activity,[8] the high enzyme concentration could catalyse hydrolysis over the time-frame of the assay, with the initial KD values reflective of the known modest affinity of ATP for HSP70, whilst the final KD value was consistent with the higher affinity ADP ligand.[14] […]
(§2) TRIS Tris(hydroxymethyl)aminomethane
(§3) General Information: Unless otherwise stated the aqueous assay buffer contained 50 mM TRIS base pH 7.4, 150 mM NaCl, 6 mM MgCl2, 1 mM DTT, 0.1% (wt/wt) CHAPS. The assay was conducted using 384 Plus F ProxiPlates (PerkinElmer) with a final assay volume of 10 μL. Plates were centrifuged at 1000 rpm for 1 minute prior to incubation and read using an 2103 Envision Multilable Plate Reader. Excitation and emission wavelengths used for green probes were 480 nm and 535 nm, respectively.
Fluorescence polarisation was measured in units of millipolarization (mP). All experiments were performed in triplicate, unless otherwise stated. Data were plotted and analysed using GraphPad Prism 6, graphical data represents the mean ± standard error of the mean for a single representative experiment. ATP-derived fluorescent probes (1.0 mM in aqueous) were purchased from Jena Bioscience. Human BAG-1M (10.9 μM in 20 mM TRIS base pH 7.4, 100 mM NaCl, 1 mM DTT, 1% (v/v) glycerol) was purchased from Enzo Life Sciences. […]
Fluorescence polarisation values for the tracer ± protein were plotted using GraphPad prism 6.
Fluorescent probe KD determination: To each well, 5 μL of probe molecule (20 nM in assay buffer) and increasing concentrations of HSP70 protein (5 μL, two-fold dilution series) were added. Fluorescence polarisation values for tracer control wells (10 nM probe in assay buffer only) were subtracted from each data point prior to data analysis. KD determination was performed using non-linear regression analysis (GraphPad Prism 6, one site–specific binding model). […]
BAG-1 titration: To each well, ATP-ATTO488 and HSP70 at two times their final concentration (5 µL in assay buffer) was added and the plate incubated in the dark for 16 hours. Increasing concentrations of BAG1 protein (5 μL, two-fold dilution series in 20 […]
(1 picture or pasted object on this page, not shown here)

TR-HSP72 (aa 3-382) = biological target: T2, TR-HSP72 (aa 3-382) (Homo sapiens, UniProt P0DMV8); test: Fluorescence polarisation probe KD determination with truncated HSP72
T2 construct: Truncated HSP72-NBD (residues 3 to 382); made in house
Procedure: as §1, §2, §3
(§4) Fluorescence polarisation was measured in units of millipolarization (mP). […] Data were plotted and analysed using GraphPad Prism 6, graphical data represents the mean ± standard error of the mean for a single representative experiment. […]

TR-HSC70 (aa 4-381) = biological target: T3, TR-HSC70 (aa 4-381) (Homo sapiens, UniProt P11142); test: Fluorescence polarisation probe KD determination with truncated HSC70
T3 construct: HSC70-NBD (residues 4 to 381); made in house
Procedure: as §1, §2, §3, §4

BAG1 = biological target: T4, BAG1 (Homo sapiens, UniProt Q99933); test: FP of probes with BAG1 in the absence of HSP72; conditions: 10 nM probe, 1 µM BAG1
T4 construct: purchased Enzo Life Sciences
T4 sequence (Q99933 1-274 isoform Q99933-3): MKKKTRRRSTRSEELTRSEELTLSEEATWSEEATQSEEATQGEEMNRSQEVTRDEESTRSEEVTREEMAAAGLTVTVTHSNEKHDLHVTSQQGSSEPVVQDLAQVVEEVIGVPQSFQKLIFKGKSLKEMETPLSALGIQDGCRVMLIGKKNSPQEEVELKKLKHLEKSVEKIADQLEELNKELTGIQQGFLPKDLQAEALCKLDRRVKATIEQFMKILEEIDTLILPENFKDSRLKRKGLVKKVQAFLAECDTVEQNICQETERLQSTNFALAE
Procedure: To assess what effect the secondary HSP72/BAG1 complex had on the apparent affinity of the non-nucleotide bisaryl-ATTO-488 FP-probe 11, we carried out a similar BAG1 study. […] To confirm that the binding of BAG1 to HSP72 was not mutually exclusive, we screened the nucleotides ADP and ATP in a competition assay with bisaryl-ATTO-488 11 and HSP72 at a 50% bound fraction, with and without a saturating concentration of BAG1 (700 nM) (Fig. S7, ESI ^†).
Fig. S4. Competitive displacement curve for bisarryl-ATTO-448 and HSP72 with compound 2. IC50 determination was performed using non-linear least squares curve fitting (GraphPad Prism 6, log(inhibitor) vs. response—variable slope (four parameters)), all data points were tested in triplicate and are represented as the arithmetic mean ± SEM. pKD=-log KD (M). pKD values are quoted as the geometric mean±SEM of n independent repeats.
Fig. S5. Bisaryl-ATTO-488 and ATP-ATTO-488 binding to truncated HSP72 and HSC70. Representative binding isotherms for bisaryl-ATTO-488 (blue) and ATP-ATTO-488 (red) binding to TR-HSP72 (aa 3-382) (•) and TR-HSC70 (aa 4-381) (x). KD determination was performed using non-linear regression analysis (one site–specific binding model), all data points were tested in triplicate and are represented as the arithmetic mean ± SEM. pKD=-log KD (M). pKD values are quoted as the geometric mean±SEM of n independent repeats.
Fig. S6. […]

T1 sequence (P0DMV8 whole entry): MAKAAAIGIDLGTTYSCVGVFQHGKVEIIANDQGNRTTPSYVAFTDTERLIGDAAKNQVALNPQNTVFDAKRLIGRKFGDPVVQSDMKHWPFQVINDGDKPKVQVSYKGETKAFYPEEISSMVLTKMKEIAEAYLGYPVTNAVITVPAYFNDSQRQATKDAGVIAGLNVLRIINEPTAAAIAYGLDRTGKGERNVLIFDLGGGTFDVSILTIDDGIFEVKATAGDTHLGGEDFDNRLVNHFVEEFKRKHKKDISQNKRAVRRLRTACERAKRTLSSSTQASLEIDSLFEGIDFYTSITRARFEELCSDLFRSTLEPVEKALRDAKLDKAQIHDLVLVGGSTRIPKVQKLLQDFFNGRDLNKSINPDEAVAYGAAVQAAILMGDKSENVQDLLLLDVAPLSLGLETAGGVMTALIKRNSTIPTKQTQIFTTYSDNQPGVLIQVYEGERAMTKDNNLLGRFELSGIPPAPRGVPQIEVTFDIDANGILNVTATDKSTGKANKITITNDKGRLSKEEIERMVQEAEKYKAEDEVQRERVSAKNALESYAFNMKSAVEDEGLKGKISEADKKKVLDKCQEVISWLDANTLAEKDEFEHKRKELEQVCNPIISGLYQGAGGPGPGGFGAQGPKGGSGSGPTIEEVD
T2 sequence (P0DMV8 3-382): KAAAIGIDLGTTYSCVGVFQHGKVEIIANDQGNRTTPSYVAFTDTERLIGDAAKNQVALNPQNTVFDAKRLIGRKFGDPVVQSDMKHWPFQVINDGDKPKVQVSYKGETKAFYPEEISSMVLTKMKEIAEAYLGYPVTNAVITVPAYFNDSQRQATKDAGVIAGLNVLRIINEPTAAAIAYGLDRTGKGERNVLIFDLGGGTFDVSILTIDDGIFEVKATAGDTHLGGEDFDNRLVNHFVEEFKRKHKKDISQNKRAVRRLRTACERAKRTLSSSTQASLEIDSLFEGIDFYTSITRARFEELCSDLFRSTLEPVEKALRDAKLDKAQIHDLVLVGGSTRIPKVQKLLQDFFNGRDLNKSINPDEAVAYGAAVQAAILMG
T3 sequence (P11142 4-381): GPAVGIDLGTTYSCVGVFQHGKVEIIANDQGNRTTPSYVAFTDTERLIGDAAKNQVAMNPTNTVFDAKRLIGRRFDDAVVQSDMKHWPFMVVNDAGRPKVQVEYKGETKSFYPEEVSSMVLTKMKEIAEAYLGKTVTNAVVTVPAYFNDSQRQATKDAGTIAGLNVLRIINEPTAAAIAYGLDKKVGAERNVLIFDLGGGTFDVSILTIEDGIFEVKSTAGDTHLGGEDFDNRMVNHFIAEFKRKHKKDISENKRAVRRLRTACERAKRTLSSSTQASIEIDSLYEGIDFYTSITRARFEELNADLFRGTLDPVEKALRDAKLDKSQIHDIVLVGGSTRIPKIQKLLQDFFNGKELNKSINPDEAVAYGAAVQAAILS

Q: Which “time-dependency of affinity for HSP72” value (HSP72) does the source give for `CN(CCCC(=O)NCCCCCCNc1ncnc2c1nc(NCc1ccc3ncccc3c1)n2[C@@H]1O[C@H](COCc2ccc(C(F)(F)F)cc2)[C@@H](O)[C@H]1O)C(=O)c1ccccc1-c1c2ccc(=N)c(S(=O)(=O)O)c-2oc2c(S(=O)(=O)O)c(N)ccc12` [compound 11] here?
A: The value was “no apparent time-dependency”.

Q: And the pKD (HSP72; 10 nM probe, 0.1% (w/v) CHAPS, n = 4)?
A: Its pKD is 6.72 ± 0.04.

Q: What about the Kd (HSP72; 10 nM probe, 0.1% (w/v) CHAPS, read-out: KD) of the same compound?
A: Its Kd is 194 nM.

Q: And the pKD (HSP72; 0.01% (v/v) Triton X-100, n = 3)?
A: Its pKD is 6.83.

Q: And the Kd (HSP72; 0.01% (v/v) Triton X-100, read-out: KD)?
A: The Kd was 150 nM.

Q: What about the Kd (HSP72; without BAG1, Fig. S7 isotherm, read-out: KD - BAG1) of the same compound?
A: The Kd was 183 nM.

Q: What about the Kd (TR-HSP72 (aa 3-382)) of the same compound?
A: The Kd was 50 nM.

Q: And the pKD (TR-HSP72 (aa 3-382))?
A: Its pKD is 7.32.

Q: What about the Kd (TR-HSC70 (aa 4-381); TR-HSC70) of the same compound?
A: The Kd was 117 nM.

Q: What about the pKD (TR-HSC70 (aa 4-381); TR-HSC70, n = 2) of the same compound?
A: The pKD was 6.93.

Q: What about the “interaction with BAG1 in the absence of HSP72” value (BAG1) of the same compound?
A: The value was “No interaction”.

Q: What about the “interaction with BAG1 in the absence of HSP72” value (BAG1; listed as bisaryl-ATTO-488) of the same compound?
A: The value was “does not interact”.
